Source: patent US20150132746A1, “SAMPLING MEDIUM” (UNIVERSITY OF OSLO, priority 2012, published 2015)
Structures can show the parent of a compound that is named as a salt. Where two headings read alike, the source gives them in different places.

Experiments:
[1] = Long term stability of model analytes in dried oral fluid stored 30 days on alginate or chitosan foam; assay type: physicochemical, human; conditions: n = 3
Text: The results are shown in Tables 3 and 4 for alginate and chitosan foam, respectively. No sample loss is observed after 30 days of storage. The stability of the model analytes by storing oral fluid on alginate and chitosan foam was considered satisfactory.

[2] = whole blood 70 ng/ml on alginate foam
[3] = cited from earlier work
[4] = oral fluid on alginate foam, theoretical 100 ng/ml, stored at 4 C
[5] = oral fluid on alginate foam, theoretical 100 ng/ml, stored at 37 C
[6] = oral fluid on alginate foam, theoretical 100 ng/ml, stored at room temperature
[7] = oral fluid on alginate foam, theoretical 100 ng/ml, stored at −18 C
[8] = oral fluid on alginate foam, theoretical 500 ng/ml, stored at 4 C
[9] = oral fluid on alginate foam, theoretical 500 ng/ml, stored at 37 C
[10] = oral fluid on alginate foam, theoretical 500 ng/ml, stored at room temperature
[11] = oral fluid on alginate foam, theoretical 500 ng/ml, stored at −18 C
[12] = oral fluid on chitosan foam, theoretical 100 ng/ml, stored at 4 C
[13] = oral fluid on chitosan foam, theoretical 100 ng/ml, stored at 37 C
[14] = oral fluid on chitosan foam, theoretical 100 ng/ml, stored at room temperature
[15] = oral fluid on chitosan foam, theoretical 100 ng/ml, stored at −18 C
[16] = oral fluid on chitosan foam, theoretical 500 ng/ml, stored at 4 C
[17] = oral fluid on chitosan foam, theoretical 500 ng/ml, stored at 37 C
[18] = oral fluid on chitosan foam, theoretical 500 ng/ml, stored at room temperature
[19] = oral fluid on chitosan foam, theoretical 500 ng/ml, stored at −18 C

Compound | Measured concentration at day 30 [1, 4] | Measured concentration at day 30 [1, 5] | Measured concentration at day 30 [1, 6] | Measured concentration at day 30 [1, 7] | Measured concentration at day 30 [1, 8] | Measured concentration at day 30 [1, 9] | Measured concentration at day 30 [1, 10] | Measured concentration at day 30 [1, 11] | Measured concentration at day 30 [1, 12] | Measured concentration at day 30 [1, 13] | Measured concentration at day 30 [1, 14] | Measured concentration at day 30 [1, 15] | Measured concentration at day 30 [1, 16] | Measured concentration at day 30 [1, 17] | Measured concentration at day 30 [1, 18] | Measured concentration at day 30 [1, 19] | Nominal concentration at day 50 ([2]; stored at 4° C.) | Nominal concentration at day 50 ([2]; stored at 37° C.) | Nominal concentration at day 50 ([2]; stored at room temperature) | Nominal concentration at day 50 ([2]; stored at −18° C.) | other results
CO[C@@]12CC[C@@]3(C[C@@H]1[C@](C)(O)C(C)(C)C)[C@H]1Cc4ccc(O)c5c4[C@@]3(CCN1CC1CC1)[C@H]2O5.Cl [Buprenorphine, buprenorphine hydrochloride] | 101 ng/mL | 115 ng/mL | 97 ng/mL | 96 ng/mL | 790 ng/mL | 656 ng/mL | 642 ng/mL | 656 ng/mL | 105 ng/mL | 100 ng/mL | 101 ng/mL | 101 ng/mL | 569 ng/mL | 595 ng/mL | 595 ng/mL | 611 ng/mL |  |  |  |  | 
CN(C)CCCC1(c2ccc(F)cc2)OCc2cc(C#N)ccc21 (stereo not drawn) [Citalopram, citalopram hydrobromide] |  |  |  |  |  |  |  |  |  |  |  |  |  |  |  |  | 64 ng/mL | 59 ng/mL | 64 ng/mL | 72 ng/mL | 
CCC(=O)C(CC(C)N(C)C)(c1ccccc1)c1ccccc1 (stereo not drawn) [Methadone, Methadone hydrochloride] | 113 ng/mL | 117 ng/mL | 103 ng/mL | 106 ng/mL | 636 ng/mL |  | 582 ng/mL | 602 ng/mL | 115 ng/mL | 108 ng/mL | 113 ng/mL | 105 ng/mL | 564 ng/mL | 545 ng/mL | 582 ng/mL | 599 ng/mL | 63 ng/mL | 54 ng/mL | 61 ng/mL | 79 ng/mL | 
CN[C@@H](C)Cc1ccccc1 [Methamphetamine] | 107 ng/mL | 42 ng/mL | 72 ng/mL | 103 ng/mL | 645 ng/mL | 319 ng/mL | 466 ng/mL | 687 ng/mL | 126 ng/mL | 80 ng/mL | 98 ng/mL | 117 ng/mL | 744 ng/mL | 467 ng/mL | 601 ng/mL | 732 ng/mL |  |  |  |  | 
COc1ccc(CC(C)N)cc1 (stereo not drawn) [PMA, para-methoxyamphetamine] | 115 ng/mL | 53 ng/mL | 80 ng/mL | 105 ng/mL | 722 ng/mL | 406 ng/mL | 628 ng/mL | 717 ng/mL | 127 ng/mL | 131 ng/mL | 104 ng/mL | 122 ng/mL | 765 ng/mL | 648 ng/mL | 719 ng/mL | 769 ng/mL |  |  |  |  | 
CNC(C)Cc1ccc(OC)cc1 (stereo not drawn) [PMMA, para-methoxymethamphetamine] | 114 ng/mL | 76 ng/mL | 197 ng/mL | 114 ng/mL | 715 ng/mL | 475 ng/mL | 628 ng/mL | 726 ng/mL | 123 ng/mL | 112 ng/mL | 104 ng/mL | 119 ng/mL | 765 ng/mL | 623 ng/mL | 647 ng/mL | 769 ng/mL |  |  |  |  | 
CN[C@H]1CC[C@@H](c2ccc(Cl)c(Cl)c2)c2ccccc21 [Sertraline, sertraline hydrochloride] |  |  |  |  |  |  |  |  |  |  |  |  |  |  |  |  | 69 ng/mL | 61 ng/mL | 77 ng/mL | 64 ng/mL | 
N[C@H]1C(O)O[C@H](CO)[C@@H](O)[C@@H]1O (stereo partly drawn) [glucosamine] |  |  |  |  |  |  |  |  |  |  |  |  |  |  |  |  |  |  |  |  | pKa [3]: 6.3
O=C[C@H](O)[C@H](O)[C@@H](O)[C@H](O)C(=O)O [guluronic, guluronic acid] |  |  |  |  |  |  |  |  |  |  |  |  |  |  |  |  |  |  |  |  | pKa [3]: 3.65
